# Laboratory results taken from patent US7238668B1, “Inhibition of lymphocyte adherence with CS-1-peptides and fragments thereof” (Fred Hutchinson Cancer Research Center, priority 1989, dated 2007).
# Ends that are not written are not given here.
# Tests used:
# [1] = test system: Jurkat cells; assay: Jurkat cell adhesion to surfaces coated with peptide-rsa conjugates; assay type: cell-based, human; conditions: Jurkat; FIG. 12; 5 ug/ml peptide; 30 min
# Experimental: ^51Cr-labeled Jurkat cells ([…]) were incubated on surfaces coated with varying concentrations of peptide-rsa conjugates starting at 50 ug/ml (w/v) fragment or peptide (based on peptide not peptide-conjugate weight). […] (No adhesion=no measurable adhesion above negative controls.)
# (§1) Adhesion of various hematopoetic cell lines to CS-1 (open bars; FIG. 12) or LDV minimal peptide-coated surfaces (cross-hatched bars; FIG. 12) was tested as follows: Jurkat (T lymphoblastoid), A375 (melanoma), U937 (monocytic), Ramos (B lymphoblastoid), and ST-1 (EBV transformed B lymphoblastoid) cells were allowed to adhere to CS-1-rsa or LDVPST-rsa (5 ug/ml peptide) coated surfaces for 30 min at 37° C. At the end of this time the non-adherent cells were washed off and the adherent cells were solubilized in NaOH/SDS and quantitated in a gamma counter. The results are expressed as bound counts per minute.
# [2] = test system: A375 melanoma cells; assay: A375 melanoma cell adhesion to peptide-rsa coated surfaces; assay type: cell-based, human; conditions: FIG. 12, 5 ug/ml peptide, 30 min
# Experimental: as §1
substance,measurement,setting,value
"LDVPST-RSA: LDVPST conjugated to rabbit serum albumin (also: conjugated to rabbit serum albumin, site not given here)",Cell adhesion to conjugate-coated surfaces,[1],only slightly
same,Cell adhesion to conjugate-coated surfaces,[2],adhered
